Active and inactive are the calls of the source. The rule behind the calls is not given here.
Columns and labels:
Plasmodium falciparum [1] = test: Antiplasmodial activity against Plasmodium falciparum 3D7 infected in human red blood cells assessed as inhibition of parasitemia incubated for 48 hrs by giemsa staining based light microscopic analysis; type: functional, organism-based, Red blood cell; settings: 3D7, Erythrocyte
Plasmodium falciparum [2] = test: Inhibition of Plasmodium falciparum plasmepsin X […] at 1 uM using DABCYL-G-PSFVEAPVRGG-EDANS as substrate by fluorescence based assay relative to control
Erythrocyte = test: Hemolytic activity against human red blood cells upto 1600 uM incubated for 1 hrs by hemolysis assay; type: toxicity, cell-based
[3] = Cytotoxicity against human HepG2 cells assessed as reduction in cell viability incubated for 48 hrs by MTT assay; type: toxicity, cell-based; settings: read-out: TC50
[4] = Therapeutic index, ratio of TC50 for cytotoxicity against human HepG2 cells to IC50 for antiplasmodial activity against Plasmodium falciparum 3D7 infected in human red blood cells; type: toxicity, cell-based; settings: read-out: TI
Plasmodium falciparum [5] = test: Antiplasmodial activity against Plasmodium falciparum 3D7 infected in human erythrocytes assessed as pyknotic trophozoites development at 1 to 10 uM measured for 56 hrs by giemsa staining based microscopic analysis; type: functional, organism-based; settings: Erythrocyte, dose 1-10 µM
Plasmodium berghei [6] = test: In vivo antimalarial activity against Plasmodium berghei ANKA strain infected in BALB/c mouse assessed as increase in mean survival time at 50 mg/kg, ip administered for 4 days and measured upto 30 days (reference value: 13 days); type: functional; settings: time <= 30 day
Plasmodium falciparum [7] = test: Resistance index, ratio of IC50 for antiplasmodial activity against chloroquine-resistant Plasmodium falciparum RKL-9 to IC50 for antiplasmodial activity against Plasmodium falciparum 3D7; type: functional
Plasmodium falciparum [8] = test: Antiplasmodial activity against Plasmodium falciparum 3D7 infected in human erythrocytes assessed as transition from ring to trophozoite at 1 to 10 uM measured for 56 hrs by giemsa staining based microscopic analysis; type: functional, organism-based; settings: Erythrocyte, dose 1-10 µM
Plasmodium berghei [9] = test: In vivo antimalarial activity against Plasmodium berghei ANKA infected in BALB/c mouse assessed as reduction in parasitemia at 50 mg/kg, ip administered for 4 consecutive days and measured on day 8 post-infection by geimsa staining based microscopic analysis relative to control; type: functional; design: scale not given: the % may be the effect or the level left; settings: time 8 day
Plasmodium falciparum [10] = test: Antiplasmodial activity against Plasmodium falciparum 3D7 infected in human erythrocytes assessed as delay in maturation of rings at 1 to 10 uM measured for 56 hrs by giemsa staining based microscopic analysis; type: functional, organism-based; settings: Erythrocyte, dose 1-10 µM
Plasmodium falciparum [11] = test: Antiplasmodial activity against Plasmodium falciparum 3D7 infected in human erythrocytes assessed as accumulation of parasite growth at late trophozoite stage at 1 to 10 uM measured after 56 hrs post-treatment by giemsa staining based microscopic analysis; type: functional, organism-based; settings: Erythrocyte, dose 1-10 µM
Plasmodium falciparum [12] = test: Antiplasmodial activity against chloroquine resistant Plasmodium falciparum RKL-9 infected in human erythrocytes assessed as inhibition of parasitemia by SYBR green-I fluorescence based spectrofluorometric analysis; type: functional, organism-based; settings: RKL-9, Erythrocyte
Plasmodium falciparum [13] = test: Induction of mitochondrial membrane loss in Plasmodium falciparum 3D7 assessed as reduction in red-green ratio at IC50 concentration incubated for 3 hrs by JC-1 staining based spectrofluorometric analysis; type: functional
Plasmodium berghei [14] = test: In vivo antimalarial activity against Plasmodium berghei ANKA strain infected in C57BL/6 mouse assessed as increase in mean survival time at 30 mg/kg, ip administered for 4 days and measured upto 30 days (reference value: 13 days); type: functional; settings: time <= 30 day
[15] = Inhibition of Plasmodium falciparum Plasmepsin X assessed as inhibition constant using DABCYL-G-PSFVEAPVRGG-EDANS as substrate by fluorescence based assay relative to control
Plasmodium berghei [16] = test: Antiplasmodial activity against firefly luciferase-expressing Plasmodium berghei liver stage infected in human Huh-7 cells assessed as inhibition of parasite growth preincubated with cells for 1 hrs followed by parasite infection and […] by bioluminescence assay; type: functional, organism-based

Row | Compound | IC50 (Plasmodium falciparum [1]) [µM] | inhibition (Plasmodium falciparum [2]) [%] | Activity (Erythrocyte) | CC50 at 48 h [3] [µM] | selectivity ratio [4] | Ratio IC50 (Plasmodium falciparum [7]) | IC50 (Plasmodium falciparum [12]) [µM] | Ratio (Plasmodium falciparum [13]) | further results
1 | O=C(N[C@@H](Cc1ccccc1)[C@@H](O)CN1CCN(Cc2ccccc2)CC1)c1ccc(N2CCOCC2)cc1 | 0.21 | 28.4 | Non-Toxic | 317 | 1450 | 3.93 | 0.86 | 3.48 | Activity (Plasmodium falciparum [5]): Active; MST (Plasmodium berghei [6]): 15 days; Activity (Plasmodium falciparum [8]): Active; Activity (Plasmodium berghei [9]): 50%; Activity (Plasmodium falciparum [10]): Active; Activity (Plasmodium falciparum [11]): Active
2 | C[C@H]1[C@H](OC(=O)CCC(=O)O)O[C@@H]2O[C@@]3(C)CC[C@H]4[C@H](C)CC[C@@H]1[C@@]24OO3 [ARTESUNATE] |  |  |  |  |  |  |  |  | MST (Plasmodium berghei [14]): 24 days
3 | CN1CCN(Cc2ccc(C(=O)N[C@@H](Cc3ccccc3)[C@@H](O)CN3CCN(Cc4ccccc4)CC3)cc2)CC1 | 0.97 | 38.6 |  | 860 | 887 |  |  |  | Ki [15]: 0.91 µM
4 | O=C(N[C@@H](Cc1ccccc1)[C@@H](O)CN1CCN(Cc2ccccc2)CC1)c1ccc(F)cc1 | 0.41 | 0.92 |  | 267 | 636 | 1.73 | 0.72 | 3.73 | Activity (Plasmodium falciparum [5]): Active; Activity (Plasmodium falciparum [10]): Active
5 | O=C(Cc1ccccc1)N[C@@H](Cc1ccccc1)[C@@H](O)CN1CCN(Cc2ccccc2)CC1 | > 5 | 6.85 |  | 305 | < 61 |  |  |  | 
6 | Cc1cnc(C(=O)N[C@@H](Cc2ccccc2)[C@@H](O)CN2CCN(Cc3ccccc3)CC2)cn1 | 1.22 | 8.79 | Non-Toxic | 285 | 232 | 0.65 | 0.79 | 4.28 | 
7 | CN1CCN(c2ccc(C(=O)N[C@@H](Cc3ccccc3)[C@@H](O)CN3CCN(Cc4ccccc4)CC3)cc2)CC1 | 1 | 34 |  | 189 | 189 |  |  |  | 
8 | O=C(N[C@@H](Cc1ccccc1)[C@@H](O)CN1CCN(Cc2ccccc2)CC1)c1cnccn1 | 1.26 | 21 | Non-Toxic | 1000 | 791 | 1 | 1.26 | 4.07 | 

Further lines, with some results ahead:

Row | IC50 (Plasmodium falciparum [1]) [µM] | inhibition (Plasmodium falciparum [2]) [%] | Compound | Activity (Erythrocyte) | CC50 at 48 h [3] [µM] | selectivity ratio [4] | Ratio IC50 (Plasmodium falciparum [7]) | IC50 (Plasmodium falciparum [12]) [µM] | Ratio (Plasmodium falciparum [13]) | further results
9 | 0.25 | 11.7 | O=C(N[C@@H](Cc1ccccc1)[C@@H](O)CN1CCN(Cc2ccccc2)CC1)c1cnc2ccccc2c1 | Non-Toxic | 100 | 400 |  |  |  | 
10 | 0.2 | 24.5 | Cc1ccc(OCC(=O)N[C@@H](Cc2ccccc2)[C@@H](O)CN2CCN(Cc3ccccc3)CC2)cc1 |  | 200 | 1000 |  |  |  | 
11 | 1.1 | 13.7 | O=C(Cc1cccc(C(F)(F)F)c1)N[C@@H](Cc1ccccc1)[C@@H](O)CN1CCN(Cc2ccccc2)CC1 |  | 990 | 900 |  |  |  | 
12 | 0.95 | 15.5 | CCC(C(=O)N[C@@H](Cc1ccccc1)[C@@H](O)CN1CCN(Cc2ccccc2)CC1)c1ccccc1 (stereo not given in full) |  | 1350 | 1420 |  |  |  | 
13 | 0.51 | 21.5 | O=C(CCc1ccc(Br)cc1)N[C@@H](Cc1ccccc1)[C@@H](O)CN1CCN(Cc2ccccc2)CC1 |  | 129 | 252 |  |  |  | IC50 (Plasmodium berghei [16]): 3.97 µM

— ChEMBL document CHEMBL5214906, “Novel Antiplasmodial Compounds Leveraged with Multistage Potency against the Parasite Plasmodium falciparum: In Vitro and In Vivo Evaluations and Pharmacokinetic Studies” (J Med Chem, 2021)
